Laboratory results reported in patent US6656932B2, “Benzo thiadiazine matrix metalloproteinase inhibitors” (Warner-Lambert Company, priority 2001, dated 2003).

Tests used:
Format in all cases: biochemical
[1] = molecular target: T1, MMP-1FL (full-length interstitial collagenase) (Homo sapiens, UniProt P03956); assay: Thiopeptolide hydrolysis assay, MMP-1FL; settings: Table 2; thiopeptolide substrate, HEPES pH 7.0; read-out: IC50 (μM) Versus Certain MMPs: MMP01 (FL)
T1 sequence (P03956 100-469): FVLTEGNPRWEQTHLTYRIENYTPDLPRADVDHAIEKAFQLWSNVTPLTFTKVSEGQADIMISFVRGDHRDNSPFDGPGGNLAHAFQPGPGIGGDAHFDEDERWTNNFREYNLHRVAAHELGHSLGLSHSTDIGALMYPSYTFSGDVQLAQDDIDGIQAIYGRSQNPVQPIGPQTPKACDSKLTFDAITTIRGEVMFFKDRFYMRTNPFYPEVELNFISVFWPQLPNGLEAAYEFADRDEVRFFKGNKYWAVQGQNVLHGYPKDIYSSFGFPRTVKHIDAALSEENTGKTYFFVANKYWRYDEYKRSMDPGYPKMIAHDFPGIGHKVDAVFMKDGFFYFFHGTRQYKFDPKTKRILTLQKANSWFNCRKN
Excerpt: (§1) The invention compounds of Formula I have been evaluated in standard assays for their ability to inhibit the catalytic activity of various MMP enzymes.
(§2) Thiopeptolide substrates show virtually no decomposition or hydrolysis at or below neutral pH in the absence of a matrix metalloproteinase enzyme.
(§3) Several representative compounds have been evaluated for their ability to inhibit various matrix metalloproteinase enzymes.

[2] = molecular target: T2, MMP-2FL (full-length Gelatinase A) (Homo sapiens, UniProt P08253); assay: Thiopeptolide hydrolysis assay, MMP-2FL; settings: Table 2; thiopeptolide substrate, HEPES pH 7.0; read-out: IC50 (μM) Versus Certain MMPs: MMP02 (FL)
T2 sequence (P08253 110-660): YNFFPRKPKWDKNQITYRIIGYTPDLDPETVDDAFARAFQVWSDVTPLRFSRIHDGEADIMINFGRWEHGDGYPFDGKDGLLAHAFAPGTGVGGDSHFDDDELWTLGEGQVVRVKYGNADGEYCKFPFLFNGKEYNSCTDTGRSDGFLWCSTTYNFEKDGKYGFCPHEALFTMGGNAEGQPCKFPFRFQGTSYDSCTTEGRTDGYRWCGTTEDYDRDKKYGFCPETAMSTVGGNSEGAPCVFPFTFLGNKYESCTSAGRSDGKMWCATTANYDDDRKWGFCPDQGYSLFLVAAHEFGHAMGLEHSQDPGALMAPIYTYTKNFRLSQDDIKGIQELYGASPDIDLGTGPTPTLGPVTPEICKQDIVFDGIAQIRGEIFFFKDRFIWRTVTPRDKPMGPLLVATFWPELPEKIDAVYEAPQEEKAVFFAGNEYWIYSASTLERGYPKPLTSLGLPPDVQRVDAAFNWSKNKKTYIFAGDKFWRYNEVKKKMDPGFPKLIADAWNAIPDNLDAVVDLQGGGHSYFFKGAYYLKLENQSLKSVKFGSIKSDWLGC
Excerpt: as §1, §2, §3

[3] = molecular target: MMP-3CD (catalytic domain of stromelysin-1) (Homo sapiens, UniProt P08254); assay: Thiopeptolide hydrolysis assay, MMP-3CD; settings: Table 2; thiopeptolide substrate, MES buffer pH 6.0; read-out: IC50 (μM) Versus Certain MMPs: MMP03 (CD)
Procedure: as §1, §2, §3
It should be appreciated that the assay buffer used with MMP-3CD was 50 mM of N-morpholinoethane sulfonate (“MES”) at pH 6.0 rather than the HEPES buffer at pH 7.0 described above.

[4] = molecular target: T3, MMP-7FL (full-length matrilysin) (Homo sapiens, UniProt P09237); assay: Thiopeptolide hydrolysis assay, MMP-7FL; settings: Table 2; thiopeptolide substrate, HEPES pH 7.0; read-out: IC50 (μM) Versus Certain MMPs: MMP07 (FL)
T3 sequence (P09237 95-267): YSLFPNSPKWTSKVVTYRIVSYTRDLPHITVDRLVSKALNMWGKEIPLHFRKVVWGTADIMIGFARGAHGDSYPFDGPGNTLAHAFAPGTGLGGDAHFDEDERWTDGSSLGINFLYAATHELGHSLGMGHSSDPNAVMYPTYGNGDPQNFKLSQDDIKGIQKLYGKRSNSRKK
Excerpt: as §1, §2, §3

[5] = molecular target: MMP-9FL (full-length Gelatinase B) (Homo sapiens, UniProt P14780); assay: Thiopeptolide hydrolysis assay, MMP-9FL; settings: Table 2; thiopeptolide substrate, HEPES pH 7.0; read-out: IC50 (μM) Versus Certain MMPs: MMP09 (FL)
Excerpt: as §1, §2, §3

[6] = molecular target: MMP-13CD (catalytic domain of collagenase 3) (Homo sapiens, UniProt P45452); assay: Thiopeptolide hydrolysis assay, MMP-13CD; settings: Table 2; thiopeptolide substrate, HEPES pH 7.0; read-out: IC50 (μM) Versus Certain MMPs: MMP13 (CD)
Excerpt: as §1, §2, §3

[7] = molecular target: MMP-14CD (catalytic domain of MMP-14) (Homo sapiens, UniProt P50281); assay: Thiopeptolide hydrolysis assay, MMP-14CD; settings: Table 2; thiopeptolide substrate, HEPES pH 7.0; read-out: IC50 (μM) Versus Certain MMPs: MMP14 (CD)
Excerpt: as §1, §2, §3

Chain of MMP-3CD (catalytic domain of stromelysin-1) (P08254 100-272 limits assumed): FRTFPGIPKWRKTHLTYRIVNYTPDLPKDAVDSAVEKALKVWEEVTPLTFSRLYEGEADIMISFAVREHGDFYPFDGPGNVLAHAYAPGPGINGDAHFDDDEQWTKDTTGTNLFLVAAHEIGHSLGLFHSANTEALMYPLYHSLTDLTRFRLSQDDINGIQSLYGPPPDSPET
Chain of MMP-9FL (full-length Gelatinase B) (P14780 94-707, species assumed): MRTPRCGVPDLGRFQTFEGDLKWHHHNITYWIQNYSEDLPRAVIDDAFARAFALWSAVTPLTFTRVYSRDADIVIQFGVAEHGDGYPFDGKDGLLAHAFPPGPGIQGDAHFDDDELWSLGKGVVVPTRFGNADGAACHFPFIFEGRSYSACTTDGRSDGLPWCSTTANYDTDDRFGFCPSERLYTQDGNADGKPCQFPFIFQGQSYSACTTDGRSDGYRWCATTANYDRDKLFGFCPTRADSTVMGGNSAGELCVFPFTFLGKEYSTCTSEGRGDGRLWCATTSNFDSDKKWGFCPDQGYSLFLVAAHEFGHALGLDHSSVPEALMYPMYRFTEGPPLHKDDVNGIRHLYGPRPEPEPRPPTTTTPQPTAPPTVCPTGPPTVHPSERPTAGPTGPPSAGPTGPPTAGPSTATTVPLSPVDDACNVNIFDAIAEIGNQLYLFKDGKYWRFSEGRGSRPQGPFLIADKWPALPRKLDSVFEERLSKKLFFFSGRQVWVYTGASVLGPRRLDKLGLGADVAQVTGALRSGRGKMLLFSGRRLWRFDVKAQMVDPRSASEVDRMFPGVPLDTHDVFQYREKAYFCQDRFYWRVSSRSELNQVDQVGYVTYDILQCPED

| IC50 [1] | IC50 [2] | IC50 [3] | IC50 [4] | IC50 [5] | IC50 [6] | IC50 [7] | SMILES |
| --- | --- | --- | --- | --- | --- | --- | --- |
| > 30 µM | > 100 µM | > 30 µM | 51 µM | > 30 µM | 0.17 µM | > 30 µM | COc1ccc(CNC(=O)c2ccc3c(c2)S(=O)(=O)N(Cc2ccccc2)C(=O)N3C)cc1 [Example 5, 2-Benzyl-4-methyl-1,1,3-trioxo-1,2,3,4-tetrahydro-1l^6-benzo[1,2,4]thiadiazine-7-carboxylic acid 4-methoxy-benzylamide] |
| > 30 µM | – | 10 µM | > 30 µM | > 30 µM | 0.29 µM | > 30 µM | COc1ccc(CNC(=O)c2ccc3c(c2)S(=O)(=O)N(Cc2ccc(C(=O)N4CCCCC4)cc2)C(=O)N3C)cc1 [Example 27, 4-Methyl-1,1,3-trioxo-2-[4-(piperidine-1-carbonyl)-benzyl]-1,2,3,4-tetrahydro-1l^6-benzo[1,2,4]thiadiazine-7-carboxylic acid 4-methoxy-benzylamide] |
| > 30 µM | – | > 100 µM | > 30 µM | > 30 µM | 0.155 µM | > 30 µM | COc1ccc(CNC(=O)c2ccc3c(c2)S(=O)(=O)N(Cc2ccc(C(N)=O)cc2)C(=O)N3C)cc1 [Example 14, 2-(4-Carbamoyl-benzyl)-4-methyl-1,1,3-trioxo-1,2,3,4-tetrahydro-1l^6-benzo[1,2,4]thiadiazine-7-carboxylic acid 4-methoxy-benzylamide] |
| > 100 µM | > 100 µM | 64 µM | > 100 µM | > 100 µM | 0.011 µM | > 100 µM | COc1ccc(CNC(=O)c2ccc3c(c2)S(=O)(=O)N(Cc2ccc(C(=O)O)cc2)C(=O)N3C)cc1 [Example 13, 4-[7-(4-Methoxy-benzylcarbamoyl)-4-methyl-1,1,3-trioxo-3,4-dihydro-1H-1l^6-benzo[1,2,4]thiadiazin-2-ylmethyl]-benzoic Acid] |
| > 100 µM | – | > 30 µM | 82 µM | > 100 µM | 0.0355 µM | > 100 µM | COc1ccc(CNC(=O)c2ccc3c(c2)S(=O)(=O)N(Cc2ccc(CC(=O)O)cc2)C(=O)N3C)cc1 [Example 30, {4-[7-(4-Methoxy-benzylcarbamoyl)-4-methyl-1,1,3-trioxo-3,4-dihydro-1H-1l^6-benzo[1,2,4]thiadiazin-2-ylmethyl]-phenyl}-acetic Acid] |
| > 30 µM | – | > 30 µM | > 30 µM | > 30 µM | 0.62 µM | > 30 µM | COc1ccc(CNC(=O)c2ccc3c(c2)S(=O)(=O)N(Cc2ccc4ccccc4c2)C(=O)N3C)cc1 [Example 22, 4-Methyl-2-naphthalen-2-ylmethyl-1,1,3-trioxo-1,2,3,4-tetrahydro-1l^6-benzo[1,2,4]thiadiazine-7-carboxylic acid 4-methoxy-benzylamide] |
| > 30 µM | – | 11 µM | > 30 µM | > 30 µM | 0.23 µM | > 30 µM | COc1ccc(CNC(=O)c2ccc3c(c2)S(=O)(=O)N(Cc2ccc(S(=O)(=O)N4CCOCC4)cc2)C(=O)N3C)cc1 [Example 19, 4-Methyl-2-[4-(morpholine-4-sulfonyl)-benzyl]-1,1,3-trioxo-1,2,3,4-tetrahydro-1l^6-benzo[1,2,4]thiadiazine-7-carboxylic acid 4-methoxy-benzylamide] |
| > 30 µM | – | 10 µM | > 30 µM | > 30 µM | 0.31 µM | > 30 µM | CNS(=O)(=O)c1ccc(CN2C(=O)N(C)c3ccc(C(=O)NCc4ccc(OC)cc4)cc3S2(=O)=O)cc1 [Example 18, 4-Methyl-2-(4-methylsulfamoyl-benzyl)-1,1,3-trioxo-1,2,3,4-tetrahydro-1l^6-benzo[1,2,4]thiadiazine-7-carboxylic acid 4-methoxy-benzylamide] |

The next lines start with the compound.

| SMILES | IC50 [1] | IC50 [2] | IC50 [3] | IC50 [4] | IC50 [5] | IC50 [6] | IC50 [7] |
| --- | --- | --- | --- | --- | --- | --- | --- |
| COc1cc(CNC(=O)c2ccc3c(c2)S(=O)(=O)N(Cc2ccccc2)C(=O)N3C)ccn1 [Example 21, 2-Benzyl-4-methyl-1,1,3-trioxo-1,2,3,4-tetrahydro-1l^6-benzo[1,2,4]thiadiazine-7-carboxylic acid (2-methoxy-pyridin-4-ylmethyl)-amide] | > 30 µM | – | > 30 µM | > 30 µM | > 30 µM | 0.155 µM | > 100 µM |
| CN1C(=O)N(Cc2ccccc2)S(=O)(=O)c2cc(C(=O)NCc3ccc4nsnc4c3)ccc21 [Example 24, 2-Benzyl-4-methyl-1,1,3-trioxo-1,2,3,4-tetrahydro-1l^6-benzo[1,2,4]thiadiazine-7-carboxylic acid (2,1,3-benzothiadiazol-5-ylmethyl)-amide] | > 30 µM | – | 13 µM | > 30 µM | > 30 µM | 0.125 µM | > 30 µM |
| CN1C(=O)N(Cc2ccc(C(=O)O)cc2)S(=O)(=O)c2cc(C(=O)NCc3ccccc3)ccc21 [Example 11, 4-(7-Benzylcarbamoyl-4-methyl-1,1,3-trioxo-3,4-dihydro-H-1l^6-benzo[1,2,4]thiadiazin-2-ylmethyl)-benzoic Acid] | > 100 µM | > 100 µM | > 100 µM | > 100 µM | > 100 µM | 0.066 µM | > 100 µM |
| CN1C(=O)N(Cc2ccccc2)S(=O)(=O)c2cc(C(=O)NCc3ccc(F)cc3)ccc21 [Example 16, 2-Benzyl-4-methyl-1,1,3-trioxo-1,2,3,4-tetrahydro-1l^6-benzo[1,2,4]thiadiazine-7-carboxylic acid 4-fluoro-benzylamide] | > 100 µM | – | > 100 µM | > 30 µM | > 30 µM | 0.345 µM | > 30 µM |
| COc1cccc(CNC(=O)c2ccc3c(c2)S(=O)(=O)N(Cc2ccccc2)C(=O)N3C)c1 [Example 34, 2-Benzyl-4-methyl-1,1,3-trioxo-1,2,3,4-tetrahydro-1l^6-benzo[1,2,4]thiadiazine-7-carboxylic acid 3-methoxy-benzylamide] | > 30 µM | – | > 100 µM | > 30 µM | > 30 µM | 0.0625 µM | > 30 µM |
